# In EP0623340B1, “Use of hydroxy or dihydroxynaphthalene in the preparation of a cosmetic or dermatological composition for skin whitening” (L'OREAL, priority 1993, dated 1994):
# Tested on: tyrosinase de champignons
# Assay: in vitro tyrosinase activity inhibition test (dopachrome formation followed at 475 nm)
# Type: biochemical
# Conditions: lowering of maximal dopachrome formed (OD 475 nm at plateau) vs no inhibitor; inhibitor at 50 % molaire relative to tyrosine; pH 6,5; 25°C
# Text: Certains des composés de formule générale (I) ont été étudiés comparativement à l'hydroquinone à quantité molaire équivalente dans le test d'inhibition in vitro de l'activité de la tyrosinase.
# Selon ce test on suit par spectrométrie visible à 475 nm la quantité de dopachrome formée au cours de la chaîne de réactions de transformation de la tyrosine en mélanines. Ces réactions sont catalysées in vitro par la tyrosinase de champignons, en présence d'un co-substrat réducteur (par exemple la L-dopa en petite quantité) pour initier la réaction d'hydroxylation de la L-tyrosine en L-dopa, laquelle est ensuite oxydée catalytiquement en dopaquinone puis en dopachrome, produit intermédiaire avant les réactions d'oxydation non enzymatiques aboutissant à la formation des mélanines.
# On mesure donc la concentration en dopachrome formé au cours du temps en présence et en absence de l'inhibiteur.
# Les concentrations en inhibiteurs sont fixées à 50 % molaire par rapport à la concentration en tyrosine dans le milieu réactionnel.
# On exprime l'effet d'inhibition par l'abaissement de la quantité maximale de dopachrome formée (valeur de densité optique à 475 nm lue au plateau de la courbe) par rapport à la quantité obtenue en l'absence d'inhibiteur.
# • A - Tampon phosphate 0,1 M pH = 6,5 (Tween 20 à 1 %) • B - Solution mère de L-tyrosine à 2.10^-3 M dans A • C - Solution mère de L-dopa à 10^-4 M dans A • D - Solution mère de tyrosinase de champignons à 2.400 unités/ml dans A • E - Solution mère de l'inhibiteur à 10^-2 M dans A (les solutions C et D sont à préparer le jour même)
# • cuve de référence : 3 ml de A • cuve d'essai : 1 ml de B 0,1 ml de C 1,85ml de A + E • homogénéiser et équilibrer à 25°C • ajouter 0,05 ml de D • mélanger rapidement et observer la cinétique par la mesure de l'absorbance à 475 nm en fonction du temps.
row,Compound,% change in maximal dopachrome formed vs no inhibitor [%]
1,"Oc1ccc(O)cc1 [hydroquinone, reference compound]",-33
2,Oc1ccc2c(O)cccc2c1 [[drawing] r3],-47
3,Oc1ccc2cc(O)ccc2c1 [[drawing] r4],-91
